Assay results published in the NIST ThermoML archive (doi:10.1021/je030136n).
Numbers after ± are expanded uncertainties.

Assay: xn = mol fraction of the nth substance listed
Details: Liquid, Pulse-echo method

CCCCCCC [heptane] + CCCO
speed of sound (293.1 K, 45590 kPa, x2 = 0.6027): 1414.5 ± 1.1 m/s | speed of sound (293.1 K, 91190 kPa, x2 = 0.1008): 1599 ± 1.3 m/s | speed of sound (293.1 K, 91190 kPa, x2 = 0.3008): 1594.3 ± 1.2 m/s | speed of sound (293.1 K, 111450 kPa, x2 = 0): 1674.3 ± 1.3 m/s | speed of sound (293.11 K, 45590 kPa, x2 = 0.1008): 1412 ± 1.2 m/s | speed of sound (293.11 K, 121580 kPa, x2 = 0.7986): 1691.8 ± 1.3 m/s | speed of sound (293.12 K, 100 kPa, x2 = 0.4992): 1158.2 ± 1.1 m/s | speed of sound (293.12 K, 30400 kPa, x2 = 0.7986): 1355.6 ± 1.1 m/s | speed of sound (293.12 K, 45590 kPa, x2 = 0.7986): 1424 ± 1.1 m/s | speed of sound (293.12 K, 75990 kPa, x2 = 0.7986): 1543.1 ± 1.2 m/s | speed of sound (293.13 K, 100 kPa, x2 = 0.6027): 1164.9 ± 1.1 m/s | speed of sound (293.13 K, 30400 kPa, x2 = 0.6027): 1343.3 ± 1.1 m/s | speed of sound (293.13 K, 45590 kPa, x2 = 0.4992): 1412.6 ± 1.1 m/s | speed of sound (293.13 K, 60790 kPa, x2 = 0.7986): 1486.1 ± 1.1 m/s | speed of sound (293.13 K, 75990 kPa, x2 = 0.1008): 1541.8 ± 1.2 m/s | speed of sound (293.13 K, 121580 kPa, x2 = 0.1008): 1701.6 ± 1.3 m/s | speed of sound (293.14 K, 100 kPa, x2 = 0.7016): 1173.8 ± 1 m/s | speed of sound (293.14 K, 100 kPa, x2 = 0.7986): 1185.8 ± 1 m/s | speed of sound (293.14 K, 60790 kPa, x2 = 0.6027): 1478.7 ± 1.2 m/s | speed of sound (293.14 K, 91190 kPa, x2 = 0.6027): 1592.5 ± 1.2 m/s | speed of sound (293.14 K, 101320 kPa, x2 = 0.1008): 1634.7 ± 1.3 m/s | speed of sound (293.14 K, 111450 kPa, x2 = 0.3008): 1663.3 ± 1.3 m/s | speed of sound (293.14 K, 111450 kPa, x2 = 0.7986): 1661.2 ± 1.2 m/s | speed of sound (293.15 K, 100 kPa, x2 = 0): 1151.7 ± 1.1 m/s | speed of sound (293.15 K, 75990 kPa, x2 = 0.6027): 1537.8 ± 1.2 m/s | speed of sound (293.15 K, 111450 kPa, x2 = 0.1008): 1668.9 ± 1.3 m/s | speed of sound (293.16 K, 30400 kPa, x2 = 0.7016): 1348.5 ± 1.1 m/s | speed of sound (293.16 K, 60790 kPa, x2 = 0.4992): 1478 ± 1.2 m/s | speed of sound (293.16 K, 75990 kPa, x2 = 0.4992): 1537.8 ± 1.2 m/s | speed of sound (293.16 K, 91190 kPa, x2 = 0.7986): 1595.9 ± 1.2 m/s | speed of sound (293.16 K, 101320 kPa, x2 = 0.3008): 1629.5 ± 1.3 m/s | speed of sound (293.16 K, 111450 kPa, x2 = 0.6027): 1659.8 ± 1.2 m/s | speed of sound (293.16 K, 121580 kPa, x2 = 0): 1707.1 ± 1.4 m/s | speed of sound (293.16 K, 121580 kPa, x2 = 0.7016): 1691 ± 1.3 m/s | speed of sound (293.17 K, 30400 kPa, x2 = 0.4992): 1340.5 ± 1.1 m/s | speed of sound (293.17 K, 45590 kPa, x2 = 0.7016): 1418.3 ± 1.1 m/s | speed of sound (293.17 K, 101320 kPa, x2 = 0.7986): 1629.2 ± 1.2 m/s | speed of sound (293.17 K, 121580 kPa, x2 = 0.3008): 1695.5 ± 1.3 m/s | speed of sound (293.18 K, 30400 kPa, x2 = 0): 1341.5 ± 1.2 m/s | speed of sound (293.18 K, 60790 kPa, x2 = 0.7016): 1481.6 ± 1.1 m/s | speed of sound (293.18 K, 101320 kPa, x2 = 0.6027): 1626.9 ± 1.2 m/s | speed of sound (293.18 K, 111450 kPa, x2 = 0.7016): 1659.9 ± 1.2 m/s | speed of sound (293.18 K, 121580 kPa, x2 = 0.6027): 1691.2 ± 1.3 m/s | speed of sound (293.19 K, 45590 kPa, x2 = 0): 1416.6 ± 1.2 m/s | speed of sound (293.19 K, 60790 kPa, x2 = 0.1008): 1479.6 ± 1.2 m/s | speed of sound (293.19 K, 60790 kPa, x2 = 0.3008): 1476.8 ± 1.2 m/s | speed of sound (293.19 K, 91190 kPa, x2 = 0.4992): 1592.6 ± 1.2 m/s | speed of sound (293.19 K, 101320 kPa, x2 = 0.7016): 1627.5 ± 1.2 m/s | speed of sound (293.2 K, 15200 kPa, x2 = 0): 1256.3 ± 1.1 m/s | speed of sound (293.2 K, 60790 kPa, x2 = 0): 1484.5 ± 1.2 m/s | speed of sound (293.2 K, 75990 kPa, x2 = 0): 1546.5 ± 1.3 m/s | speed of sound (293.2 K, 75990 kPa, x2 = 0.3008): 1537.7 ± 1.2 m/s | speed of sound (293.2 K, 75990 kPa, x2 = 0.7016): 1539.8 ± 1.2 m/s | speed of sound (293.2 K, 91190 kPa, x2 = 0): 1603.7 ± 1.3 m/s | speed of sound (293.2 K, 91190 kPa, x2 = 0.7016): 1593.7 ± 1.2 m/s | speed of sound (293.2 K, 101320 kPa, x2 = 0): 1639.7 ± 1.3 m/s | speed of sound (293.21 K, 100 kPa, x2 = 0.3008): 1149.9 ± 1.1 m/s | speed of sound (293.21 K, 30400 kPa, x2 = 0.3008): 1336.5 ± 1.1 m/s | speed of sound (293.21 K, 101320 kPa, x2 = 0.4992): 1627.3 ± 1.2 m/s | speed of sound (293.21 K, 111450 kPa, x2 = 0.4992): 1660.5 ± 1.3 m/s | speed of sound (293.22 K, 100 kPa, x2 = 0.1008): 1147.3 ± 1.1 m/s | speed of sound (293.22 K, 15200 kPa, x2 = 0.1008): 1252 ± 1.1 m/s | speed of sound (293.22 K, 30400 kPa, x2 = 0.1008): 1337 ± 1.1 m/s | speed of sound (293.22 K, 45590 kPa, x2 = 0.3008): 1410.2 ± 1.2 m/s | speed of sound (293.23 K, 121580 kPa, x2 = 0.4992): 1692.2 ± 1.3 m/s | speed of sound (298.06 K, 121580 kPa, x2 = 0.6027): 1679 ± 1.3 m/s | speed of sound (298.1 K, 101320 kPa, x2 = 0.3008): 1616 ± 1.3 m/s | speed of sound (298.11 K, 75990 kPa, x2 = 0): 1531.6 ± 1.3 m/s | speed of sound (298.13 K, 100 kPa, x2 = 0.4992): 1137 ± 1.1 m/s | speed of sound (298.13 K, 101320 kPa, x2 = 0.4992): 1614.4 ± 1.2 m/s | speed of sound (298.13 K, 111450 kPa, x2 = 0): 1660.5 ± 1.5 m/s | speed of sound (298.13 K, 111450 kPa, x2 = 0.6027): 1647.1 ± 1.2 m/s | speed of sound (298.13 K, 111450 kPa, x2 = 0.7986): 1649.2 ± 1.2 m/s | speed of sound (298.14 K, 91190 kPa, x2 = 0.4992): 1579.3 ± 1.2 m/s | speed of sound (298.14 K, 111450 kPa, x2 = 0.3008): 1650.1 ± 1.3 m/s | speed of sound (298.14 K, 121580 kPa, x2 = 0): 1692.4 ± 1.4 m/s | speed of sound (298.14 K, 121580 kPa, x2 = 0.1008): 1688.8 ± 1.3 m/s | speed of sound (298.14 K, 121580 kPa, x2 = 0.4992): 1679.9 ± 1.3 m/s | speed of sound (298.15 K, 100 kPa, x2 = 0.1008): 1125.7 ± 1.1 m/s | speed of sound (298.15 K, 30400 kPa, x2 = 0.4992): 1323.2 ± 1.1 m/s | speed of sound (298.15 K, 30400 kPa, x2 = 0.7986): 1339.6 ± 1.1 m/s | speed of sound (298.15 K, 60790 kPa, x2 = 0.4992): 1462.7 ± 1.2 m/s | speed of sound (298.15 K, 75990 kPa, x2 = 0.4992): 1523.3 ± 1.2 m/s | speed of sound (298.15 K, 91190 kPa, x2 = 0): 1589.4 ± 1.3 m/s | speed of sound (298.15 K, 101320 kPa, x2 = 0.6027): 1613.9 ± 1.2 m/s | speed of sound (298.15 K, 111450 kPa, x2 = 0.4992): 1647.9 ± 1.3 m/s | speed of sound (298.15 K, 121580 kPa, x2 = 0.3008): 1682.7 ± 1.3 m/s | speed of sound (298.16 K, 100 kPa, x2 = 0): 1129.9 ± 1.1 m/s | speed of sound (298.16 K, 45590 kPa, x2 = 0.1008): 1395.7 ± 1.2 m/s | speed of sound (298.16 K, 45590 kPa, x2 = 0.4992): 1396.7 ± 1.1 m/s | speed of sound (298.16 K, 45590 kPa, x2 = 0.7986): 1408.9 ± 1.1 m/s | speed of sound (298.16 K, 101320 kPa, x2 = 0): 1625.7 ± 1.3 m/s | speed of sound (298.16 K, 101320 kPa, x2 = 0.1008): 1620.6 ± 1.3 m/s | speed of sound (298.16 K, 111450 kPa, x2 = 0): 1660.4 ± 1.5 m/s | speed of sound (298.17 K, 100 kPa, x2 = 0.7986): 1166.7 ± 1 m/s | speed of sound (298.17 K, 15200 kPa, x2 = 0.1008): 1232.9 ± 1.1 m/s | speed of sound (298.17 K, 30400 kPa, x2 = 0.1008): 1319.5 ± 1.1 m/s
